Test results taken from article PMC11513892, “Discovery of a Series of Macrocycles as Potent Inhibitors of Leishmania Infantum” (Journal of Medicinal Chemistry, 2024).
Where two headings read alike, the source gives them in different places.

What was measured:
MRC-5 cells = assay: Host cell cytotoxicity in MRC-5 cells; type: cell-based, human; conditions: CSV supplement; decimal comma
[1] = Clearance in mouse liver microsomes; type: in vitro ADME; conditions: for microsomal CLint: mouse, liver microsomes
Method: (§1) The kinetic solubility in phosphate buffered saline at pH 7.4, chromatographic Log D at pH 7.4, cell permeability across a MDCK-MDR1 cell monolayer at pH 7.4, and the clearance in mouse liver microsomes of 1–12 was determined at TCG Lifesciences.

[2] = Chromatographic Log D at pH 7.4; type: physicochemical; conditions: 1-octanol/PBS pH 7.4, determined by chromatography, mean of two measurements
Method: as §1

[3] = Clearance in human microsomes; type: in vitro ADME; conditions: CSV supplement; for microsomal CLint: human, microsomes, read-out: CLint in vitro Human Microsomes
Description: Supplement jm4c01370_si_002.csv, table | column: CLint in vitro Human Microsomes µL/min/mg; t(1/2) min

T. b. rhodesiense = assay: Growth of T. b. rhodesiense trypomastigotes in axenic culture; type: cell-based, Trypanosoma brucei rhodesiense; conditions: for EC50: Trypanosoma brucei
Description: (§2) We previously reported the synthesis of a series of macrocycles, including 1 (Figure 2A), designed to investigate how structural features influence molecular chameleonicity.[15],[21] Originating from the structural similarities between 1 and hymenocardine, we investigated 1 in screens for P. falciparum and four kinetoplastid parasites: T. b. brucei, T. b. rhodesiense, T. cruzi, and L. infantum. In the screens, we also included compounds 2 and 3 (Figure 2A), which were obtained from an intermediate late in the synthetic route to 1. Since very few validated protein targets relevant to clearance of parasites are known, phenotypic assays were used to investigate the antiparasitic activity for all five parasites. For malaria, the P. falciparum blood stage 3D7 strain was used to test the three compounds. For the two Trypanosoma brucei species, the reduction in trypomastigote growth in culture medium was determined after the addition of 1–3. For T. cruzi, the intracellular parasite growth in infected human fibroblasts (MRC-5 cell line) was assessed in the presence and absence of the three inhibitors. Similarly, the growth of L. infantum was assessed in infected primary mouse macrophages (PMMs) in the presence and absence of the inhibitors. […] The assays for T. cruzi and L. infantum are complex, i.e., they determine the degree of inhibition of parasitic replication in a mammalian cell line; this complexity may lead to a high variability for some compounds.
(§3) The growth of the P. falciparum blood stage 3D7 strain,[53] the two T. brucei species in axenic cultures,[54]T. cruzi in infected human fibroblasts (MRC-5 cell line),[55] and of L. infantum in infected primary mouse macrophages (PMMs)[56] was determined as previously reported in the presence and absence of inhibitors 1–12.

MDR1 = assay: in vitro; type: in vitro ADME, canine; conditions: dog; for Papp B→A: MDCK-MDR1, pH 7.4; for Papp A→B: MDCK-MDR1, pH 7.4, Papp AB
Method: (§4) The potency of macrocycles 1–12 to inhibit the growth of L. infantum was determined in a phenotypic assay in which the parasite was grown in primary peritoneal mouse macrophages (PMMs). To understand whether the SAR for inhibition of parasitic growth is impacted by low cell permeability, the permeability of compounds 1–12 was determined separately. Madin-Darby canine kidney (MDCK) cells transfected with the human MDR1 (multidrug resistance 1) gene (MDCK-MDR1 cells) were used to determine permeabilities in the apical to basolateral direction (Papp AB) as well as efflux ratios (ERs). […] Lipophilicity (Log D at pH 7.4), aqueous kinetic solubility and mouse liver microsomal metabolism were also determined for 1–12, and are discussed separately (cf. physiochemical properties and ADMET, below).
as §1

T. b. brucei = assay: Growth of T. b. brucei trypomastigotes in axenic culture; type: cell-based; conditions: Trypanosoma brucei
Description: as §2, §3

[4] = Kinetic solubility in phosphate buffered saline at pH 7.4; type: physicochemical
Method: as §1

T. cruzi = assay: Intracellular growth of T. cruzi in infected human fibroblasts (MRC-5 cell line); type: cell-based; conditions: Trypanosoma cruzi
Description: as §2, §3

L. infantum = assay: Growth of L. infantum in infected primary mouse macrophages (PMMs), phenotypic assay; type: cell-based, Leishmania infantum; conditions: for EC50: Leishmania infantum, Macrophage; for loss in potency compared to 3, L. infantum: relative to compound 3
Description: as §2, §4, §3

[5] = test system: primary mouse macrophages (PMMs); assay: Host cell cytotoxicity in primary mouse macrophages (PMM); type: cell-based; conditions: CSV supplement; decimal comma
[6] = CSV supplement, read-out: CLint in vitro Mouse Microsomes
[7] = incubation with mouse liver microsomes, read-out: CLint
[8] = RHODESIENSE / STIB900, CSV supplement, decimal comma, read-out: EC50 T.b. rhodesiense STIB 900
[9] = MDCK-MDR1, pH 7.4, ER, efflux ratio (BA/AB)
[10] = MDCK-MDR1, pH 7.4, MDCK MDR1 - pH 7.4 Efflux Ratio
[11] = CSV supplement, decimal comma, read-out: EC50 T.b. brucei Squib 427
[12] = phosphate buffered saline, pH 7.4, CSV supplement, read-out: Kinetic solubility
[13] = phosphate buffered saline, pH 7.4, phosphate buffered saline pH 7.4, assay range 2.5–200 μM, read-out: solubility (kinetic)
[14] = MRC5, Table S1, mean (SD), 2 to 14 measurements, unit not given in Table S1, read-out: In vitro potency, T. cruzi
[15] = TULAHUEN, MRC5, read-out: EC50 T. cruzi Tulahuen C4 (LacZ)
[16] = Table 1, mean (standard deviation, number of measurements), read-out: EC50 (μM), inhibition of the growth of L. infantum
[17] = RHODESIENSE, Table S1, mean (SD), 2 to 14 measurements, unit not given in Table S1, read-out: In vitro potency, T. b. rhodesiense
[18] = Table S1, mean (SD), 2 to 14 measurements, unit not given in Table S1, read-out: In vitro potency, T. b. brucei
[19] = CSV supplement, decimal comma, read-out: EC50 L. infantum MHOM/MA(BE)/67

Structure (SMILES)	MRC-5 cells Human Lung Fibroblast Cells (cytotoxicity) (MRC-5 cells) [µM]	t(1/2), Mouse Microsomes ([1]; CSV supplement)	microsomal CLint [1, 6] [µL/min/mg]	microsomal CLint [1, 7] [µL/min/mg]	chromatographic logD [2]	EC50 (T. b. rhodesiense; [8]) [µM]	Papp B→A (MDR1) [×10⁻⁶ cm/s]	efflux ratio (MDR1; [9])	efflux ratio (MDR1; [10])	Papp A→B (MDR1) [×10⁻⁶ cm/s]	EC50 (T. b. brucei; [11]) [µM]	solubility kinetic [4, 12] [µg/mL]	solubility kinetic [4, 13] [µM]	EC50 (T. cruzi; [14]) [µM]	EC50 (T. cruzi; [15]) [µM]	EC50 (L. infantum; [16]) [µM]	PMM Primary Mouse Macrophages (inf-LMPH) (cytotoxicity) [5] [µM]	EC50 (T. b. brucei; [18]) [µM]	also measured
CC(C)(C)OC(=O)N[C@H]1Cc2ccc(cc2)Oc2ccc(cc2NC(=O)c2ccccn2)C(=O)CNC(=O)[C@H](c2ccccc2)NC1=O [Compound 9, tert-Butyl ((8S,11S)-4,7,10-Trioxo-8-phenyl-3^2-(picolinamido)-2-oxa-6,9-diaza-1,3(1,4)-dibenzenacyclododecaphane-11-yl)carbamate]	>64	8,4 min	206	210	4.4	1.9	4.2	9.9	9.9	0.4	7.7	10.3	16	19	18.9	6.6	>64		t(1/2), Human Microsomes [3]: 8,8 min; microsomal CLint [3]: 197 µL/min/mg; activity as inhibitor of T. b. rhodesiense (in words) (T. b. rhodesiense; text on Table S1): moderately active
CC(C)(C)OC(=O)N[C@H]1Cc2ccc(cc2)Oc2ccc(cc2NC(=O)c2ccccn2)C(=O)CNC(=O)[C@@H](Cc2ccccc2)NC1=O [Compound 8, tert-Butyl ((8R,11S)-8-Benzyl-4,7,10-trioxo-3^2-(picolinamido)-2-oxa-6,9-diaza-1,3(1,4)-dibenzenacyclododecaphane-11-yl)carbamate]	>64	<3 min	> 578	> 580	4.8	6.4	22.3	7.6	7.6	2.9	8.1	1.9	2.9		6.1	8.2	>64		
CC(=O)N[C@H]1Cc2ccc(cc2)Oc2ccc(cc2NC(=O)c2ccccn2)C(=O)CNC(=O)[C@H](Cc2ccccc2)NC1=O [Compound 11]	>64	12,9 min	134	130	3.2	23.6	17.8			1.1	26.8	58.3	96		33	38	>64	36	EC50 (T. b. rhodesiense; [17]): 24 µM; efflux ratio (MDR1; MDCK-MDR1, pH 7.4, CSV supplement, pH 7.4, read-out: MDCK MDR1 - pH 7.4 Efflux Ratio): 15.7; efflux ratio (MDR1; MDCK-MDR1, pH 7.4, MDCK-MDR1 cell monolayer, read-out: ER, efflux ratio (BA/AB)): 16; EC50 (L. infantum; [19]): 37.5 µM; loss in potency compared to 3, L. infantum (L. infantum): > 20 fold
COc1ccc(C[C@H](NC(=O)OC(C)(C)C)C(=O)N[C@@H](Cc2ccccc2)C(=O)NCC(=O)c2cccc(NC(=O)c3ccccn3)c2)cc1 [Compound 4, tert-Butyl ((S)-3-(4-Methoxyphenyl)-1-oxo-1-(((S)-1-oxo-1-((2-oxo-2-(3-(picolinamido)phenyl)ethyl)amino)-3-phenylpropan-2-yl)amino)propan-2-yl)carbamate]	>64	<3 min	> 578	> 580	4.7	6.1	2.4				32.7	4.9	7.3	64	> 64	38	>64	33	t(1/2), Human Microsomes [3]: <3 min; microsomal CLint [3]: > 578 µL/min/mg; activity in the L. infantum phenotypic screen (in words) (L. infantum; Table 1): inactive
C[C@@H]1NC(=O)[C@@H](NC(=O)OC(C)(C)C)Cc2ccc(cc2)Oc2ccc(cc2NC(=O)c2ccccn2)C(=O)CNC1=O [Compound 7, tert-Butyl ((8S,11S)-8-Methyl-4,7,10-trioxo-3^2-(picolinamido)-2-oxa-6,9-diaza-1,3(1,4)-dibenzenacyclododecaphane-11-yl)carbamate]	>64	5,8 min	297	300	3.5	9.7	39.3	28	28.3	1.4	49	73.7	> 100	36	35.5	16	>64		solubility kinetic ([4]; phosphate buffered saline pH 7.4, assay range 2.5–200 μM, read-out: solubility (kinetic)): 126 µM; EC50 (L. infantum; [19]): 15.5 µM; loss in potency compared to 3, L. infantum (L. infantum): ~10 fold
CCCCCCCCCCCCCCCCOP(=O)([O-])OCC[N+](C)(C)C [Miltefosine, miltefosine, reference compound]																6.1			
CC(C)(C)C(=O)N[C@H]1Cc2ccc(cc2)Oc2ccc(cc2NC(=O)c2ccccn2)C(=O)CNC(=O)[C@H](Cc2ccccc2)NC1=O [Compound 12, tert-Butyl ((8S,11S)-8-Benzyl-4,7,10-trioxo-11-pivalamido-2-oxa-6,9-diaza-1,3(1,4)-dibenzenacyclododecaphane-3^2-yl)picolinamide]	>64	<3 min	> 578	> 580	4.4	21.3	31.8	21	20.8	1.5	30.4	10.3	16	64	> 64	7.1	>64	30	EC50 (T. b. rhodesiense; [17]): 21 µM
